The first experiment relates to FLU A (PR/8/34). The experiment is described as follows: Flu A Neuraminidase Antiviral Assay. It is filed as cell-based.
Conditions: not given
`CCN1C(=O)c2c(O)c(=O)ccn2N2C1CCCC2(C)c1cccc(C2CC2)n1` (single isomer, unassigned) [Compound 55B, 1-(6-cyclopropylpyridin-2-yl)-5-ethyl-7-hydroxy-1-methyl-1,2,3,4,4a,5-hexahydrodipyrido[1,2-b:2′,1′-f][1,2,4]triazine-6,8-dione] had an EC50 of 0.0185 µM.

`Cc1ccccc1C1C(c2ccc(F)c(F)c2)CCC2N(C)C(=O)c3c(O)c(=O)ccn3N12` (single isomer, unassigned) [Compound 91B, 2-(3,4-difluorophenyl)-7-hydroxy-5-methyl-1-(o-tolyl)-1,2,3,4,4a,5-hexahydrodipyrido[1,2-b:2′,1′-f][1,2,4]triazine-6,8-dione] gave an EC50 of 0.0073 µM.

On to `CC1(c2ncc(F)cc2F)CCCC2N(CC(F)F)C(=O)c3c(O)c(=O)ccn3N21` (single isomer, unassigned) [Compound 47A, 5-(2,2-difluoroethyl)-1-(3,5-difluoropyridin-2-yl)-7-hydroxy-1-methyl-1,2,3,4,4a,5-hexahydrodipyrido[1,2-b:2′,1′-f][1,2,4]triazine-6,8-dione], for which the EC50 came out at 0.0257 µM.

Molecule `CN1C(=O)c2c(O)c(=O)ccn2N2C(c3ccccc3F)C(CC(F)(F)F)CCC12` (single isomer, unassigned) [Compound 127A, 1-(2-fluorophenyl)-7-hydroxy-5-methyl-2-(2,2,2-trifluoroethyl)-1,2,3,4,4a,5-hexahydrodipyrido[1,2-b:2′,1′-f][1,2,4]triazine-6,8-dione] showed an EC50 of 3.5 µM.

As for `CCC1(c2ccccc2)CCCC2N(C)C(=O)c3c(O)c(=O)ccn3N21` (single isomer, unassigned) [Compound 22C, 1-ethyl-7-hydroxy-5-methyl-1-phenyl-1,2,3,4,4a,5-hexahydrodipyrido[1,2-b:2′,1′-f][1,2,4]triazine-6,8-dione], the EC50 is above 8.1 µM.

In turn, `Cc1ccnc(C2(C)CCCC3N(CC(F)(F)F)C(=O)c4c(O)c(=O)ccn4N32)c1` (single isomer, unassigned) [Compound 50B, 7-hydroxy-1-methyl-1-(4-methylpyridin-2-yl)-5-(2,2,2-trifluoroethyl)-1,2,3,4,4a,5-hexahydrodipyrido[1,2-b:2′,1′-f][1,2,4]triazine-6,8-dione] showed a concentration giving a half-maximal response (EC50) of 0.009 µM.

For `CN1C(=O)c2c(O)c(=O)ccn2N2C(c3ccccc3)C(CCC(F)F)CCC12` (single isomer, unassigned) [Compound 124B, 2-(3,3-difluoropropyl)-7-hydroxy-5-methyl-1-phenyl-1,2,3,4,4a,5-hexahydrodipyrido[1,2-b:2′,1′-f][1,2,4]triazine-6,8-dione], the EC50 worked out at 0.0016 µM.

In turn, `CN1C(=O)c2c(O)c(=O)ccn2N2C(c3ccccc3)C(CC3CC3(F)F)CCC12` (single isomer, unassigned) [Compound 114A, 2-((2,2-difluorocyclopropyl)methyl)-7-hydroxy-5-methyl-1-phenyl-1,2,3,4,4a,5-hexahydrodipyrido[1,2-b:2′,1′-f][1,2,4]triazine-6,8-dione] showed an EC50 above 8.1 µM.

`CN1C(=O)c2c(O)c(=O)ccn2N2[C@H](c3ccccc3)[C@H](OCC(F)F)CC[C@@H]12` (single isomer, unassigned) [Compound 153A] registered an EC50 of 3.06 µM.

Regarding `CN1C(=O)c2c(O)c(=O)ccn2N2C1CCC(O)C2(C)c1ccccc1` (stereo not shown) [Compound 137A, 2,7-dihydroxy-1,5-dimethyl-1-phenyl-1,2,3,4,4a,5-hexahydrodipyrido[1,2-b:2′,1′-f][1,2,4]triazine-6,8-dione], the EC50 was 0.79 µM.

Turning to `Cc1ccccc1C1N2C(CCC13CC1C(C3)C1(F)F)N(C)C(=O)c1c(O)c(=O)ccn12` (single isomer, unassigned) [Compound 69C, 6,6-difluoro-7′-hydroxy-5′-methyl-1′-(o-tolyl)-3′,4′,4a′,5′-tetrahydro-1′H-spiro[bicyclo[3.1.0]hexane-3,2′-dipyrido[1,2-b:2′,1′-f][1,2,4]triazine]-6′,8′-dione], the EC50 came to 0.0884 µM.

With `CCN1C(=O)c2c(O)c(=O)cc(COC)n2N2C(c3ccccc3)C(CC(F)(F)F)CCC12` (stereo not shown) [Compound 131F, 5-ethyl-7-hydroxy-10-(methoxymethyl)-1-phenyl-2-(2,2,2-trifluoroethyl)-1,2,3,4,4a,5-hexahydrodipyrido[1,2-b:2′,1′-f][1,2,4]triazine-6,8-dione], the EC50 worked out at 0.0125 µM.

Molecule `CN1C(=O)c2c(O)c(=O)ccn2N2C1CCC1(CCC(F)(F)C1)C2c1ccccc1` (single isomer, unassigned) [Compound 68B, 3,3-difluoro-7′-hydroxy-5′-methyl-1′-phenyl-3′,4′,4a′,5′-tetrahydro-1′H-spiro[cyclopentane-1,2′-dipyrido[1,2-b:2′,1′-f][1,2,4]triazine]-6′,8′-dione] came in with a concentration for a half-maximal effect (EC50) above 0.81 µM.

On to `CC1(c2ccccc2)CCCC2N(CC3CC(F)(F)C3)C(=O)c3c(O)c(=O)ccn3N21` (single isomer, unassigned) [Compound 45A, 5-((3,3-difluorocyclobutyl)methyl)-7-hydroxy-1-methyl-1-phenyl-1,2,3,4,4a,5-hexahydrodipyrido[1,2-b:2′,1′-f][1,2,4]triazine-6,8-dione], for which the half-maximal effective concentration (EC50) is above 8.1 µM.

Molecule `C=CCC1CCC2N(C)C(=O)c3c(O)c(=O)ccn3N2C1c1ccccc1Cl` (stereo not shown) [Compound 64C, 2-allyl-1-(2-chlorophenyl)-7-hydroxy-5-methyl-1,2,3,4,4a,5-hexahydrodipyrido[1,2-b:2′,1′-f][1,2,4]triazine-6,8-dione] yielded an EC50 of 0.673 µM.

As for `O=C1c2c(O)c(=O)ccn2N2C(c3ccccc3)CCCC2N1CC1CC1` (single isomer, unassigned) [Compound 56A, 5-(cyclopropylmethyl)-7-hydroxy-1-phenyl-1,2,3,4,4a,5-hexahydrodipyrido[1,2-b:2′,1′-f][1,2,4]triazine-6,8-dione], the EC50 was above 8.1 µM.

In turn, `O=C1c2c(O)c(=O)ccn2N2C(c3ccccc3)C(CCC(F)(F)F)CCC2N1CC1CC1` (single isomer, unassigned) [Compound 100A, 5-(cyclopropylmethyl)-7-hydroxy-1-phenyl-2-(3,3,3-trifluoropropyl)-1,2,3,4,4a,5-hexahydrodipyrido[1,2-b:2′,1′-f][1,2,4]triazine-6,8-dione] gave an EC50 above 0.81 µM.

For `Cc1ccccc1C1C(CCC(F)F)CCC2N(C)C(=O)c3c(O)c(=O)ccn3N12` (single isomer, unassigned) [Compound 103B, 2-(3,3-difluoropropyl)-7-hydroxy-5-methyl-1-(o-tolyl)-1,2,3,4,4a,5-hexahydrodipyrido[1,2-b:2′,1′-f][1,2,4]triazine-6,8-dione], the 50% effective concentration (EC50) worked out at 0.0053 µM.

For `Cc1ccccc1C1C(CCC(F)(F)F)CCC2N(C)C(=O)c3c(O)c(=O)ccn3N12` (single isomer, unassigned) [Compound 95B, 7-hydroxy-5-methyl-1-(o-tolyl)-2-(3,3,3-trifluoropropyl)-1,2,3,4,4a,5-hexahydrodipyrido[1,2-b:2′,1′-f][1,2,4]triazine-6,8-dione], the EC50 was 0.0075 µM.

As to `CN1C(=O)c2c(O)c(=O)ccn2N2C1CCC2(C)c1ccccc1` (single isomer, unassigned) [Compound 61B, 6-hydroxy-1,4-dimethyl-1-phenyl-2,3,3a,4-tetrahydro-1H-pyrido[2,1-f]pyrrolo[1,2-b][1,2,4]triazine-5,7-dione], the EC50 is 2.73 µM.

In turn, `COc1ccccc1C1C(CC(F)(F)F)CCC2N(C)C(=O)c3c(O)c(=O)ccn3N12` (single isomer, unassigned) [Compound 125A, 7-hydroxy-1-(2-methoxyphenyl)-5-methyl-2-(2,2,2-trifluoroethyl)-1,2,3,4,4a,5-hexahydrodipyrido[1,2-b:2′,1′-f][1,2,4]triazine-6,8-dione] showed a concentration giving a half-maximal response (EC50) of 1.02 µM.

For the molecule `CCN1C(=O)c2c(O)c(=O)ccn2N2C1CCCC2(C)c1cccc(C)n1` (single isomer, unassigned) [Compound 53B, 5-ethyl-7-hydroxy-1-methyl-1-(6-methylpyridin-2-yl)-1,2,3,4,4a,5-hexahydrodipyrido[1,2-b:2′,1′-f][1,2,4]triazine-6,8-dione], the midpoint of the response, the EC50, lay at 0.0083 µM.

Turning to `CN1C(=O)c2c(O)c(=O)ccn2N2C(c3ccccc3)C(O)CCC12` (stereo not shown) [Compound 136A, 2,7-dihydroxy-5-methyl-1-phenyl-1,2,3,4,4a,5-hexahydrodipyrido[1,2-b:2′,1′-f][1,2,4]triazine-6,8-dione], the concentration giving a half-maximal response (EC50) came out at 1.92 µM.

`CN1C(=O)c2c(O)c(=O)ccn2N2C(c3ccccc3)C(c3cccc(F)c3F)CCC12` (single isomer, unassigned) [Compound 116A, 2-(2,3-difluorophenyl)-7-hydroxy-5-methyl-1-phenyl-1,2,3,4,4a,5-hexahydrodipyrido[1,2-b:2′,1′-f][1,2,4]triazine-6,8-dione] yielded a concentration for a half-maximal effect (EC50) of 6.2 µM.

The molecule `CC1(c2ccccc2)CCCC2N(CC3CC4(CCC4)C3)C(=O)c3c(O)c(=O)ccn3N21` (single isomer, unassigned) [Compound 42B, 7-hydroxy-1-methyl-1-phenyl-5-(spiro[3.3]heptan-2-ylmethyl)-1,2,3,4,4a,5-hexahydrodipyrido[1,2-b:2′,1′-f][1,2,4]triazine-6,8-dione] showed a half-maximal effective concentration (EC50) of 0.0495 µM.

The molecule `CCCC1CCC2N(C)C(=O)c3c(O)c(=O)ccn3N2C1(C)c1ccccc1` (single isomer, unassigned) [Compound 33B, 7-hydroxy-1,5-dimethyl-1-phenyl-2-propyl-1,2,3,4,4a,5-hexahydrodipyrido[1,2-b:2′,1′-f][1,2,4]triazine-6,8-dione] had an EC50 of 1.88 µM.

The experiment is the same for the next values; noted with them: MDCK, 48 h.
`COC1(c2ccccc2)CCCC2C1n1ccc(=O)c(O)c1C(=O)N2C` (stereo not shown) [Compound 167, 7-hydroxy-1-methoxy-5-methyl-1-phenyl-1,3,4,4a,5,11a-hexahydro-2H-pyrido[1,2-a]quinoxaline-6,8-dione] gave an EC50 of 0.109 µM.

With `CN1C(=O)c2c(O)c(=O)c(-c3nnn[nH]3)cn2N2C(c3ccccc3)C(CC(F)(F)F)CCC12` (stereo not shown) [Compound 134, 7-hydroxy-5-methyl-1-phenyl-9-(1H-tetrazol-5-yl)-2-(2,2,2-trifluoroethyl)-1,2,3,4,4a,5-hexahydrodipyrido[1,2-b:2′,1′-f][1,2,4]triazine-6,8-dione], the concentration giving a half-maximal response (EC50) amounted to 0.453 µM.

A word on the EC50: it is the concentration that produces a half-maximal response.
